From ChEMBL document CHEMBL2429768, “Eco-friendly synthesis and antimicrobial activities of substituted-5-(1H-indol-3-yl)methylene)-2,2-dimethyl-1,3-dioxane-4,6-dione derivatives” (2013)
Converted amounts (≈) assume the structure as drawn.

Assays:
Assay type in all cases: functional
[1] = tested on: Bacillus subtilis; test: Antibacterial activity against Bacillus subtilis at 200 ug/ml after 24 hrs by agar well diffusion method; settings: read-out: DIZ
[2] = tested on: Escherichia coli; test: Antibacterial activity against Escherichia coli ATCC 8739 at 500 ug/ml after 24 hrs by agar well diffusion method; settings: ATCC 8739, 24 h, read-out: DIZ
[3] = tested on: Staphylococcus aureus; test: Antibacterial activity against Staphylococcus aureus ATCC 6538 at 300 ug/ml after 24 hrs by agar well diffusion method; settings: ATCC 6538, 24 h, read-out: DIZ
[4] = tested on: Fusarium oxysporum; test: Antifungal activity against Fusarium oxysporum after 72 hrs by agar well diffusion method
[5] = tested on: Staphylococcus aureus; test: Antibacterial activity against Staphylococcus aureus ATCC 6538 after 24 hrs by agar well diffusion method; settings: ATCC 6538, 24 h
[6] = tested on: Staphylococcus aureus; test: Antibacterial activity against Staphylococcus aureus ATCC 6538 at 50 ug/ml after 24 hrs by agar well diffusion method; settings: ATCC 6538, 24 h, read-out: DIZ
[7] = tested on: Klebsiella pneumoniae; test: Antibacterial activity against Klebsiella pneumoniae at 100 ug/ml after 24 hrs by agar well diffusion method; settings: read-out: DIZ
[8] = tested on: Aspergillus niger; test: Antifungal activity against Aspergillus niger at 500 ug/ml after 72 hrs by agar well diffusion method; settings: read-out: DIZ
[9] = tested on: Bacillus subtilis; test: Antibacterial activity against Bacillus subtilis at 300 ug/ml after 24 hrs by agar well diffusion method; settings: read-out: DIZ
[10] = tested on: Rhizoctonia solani; test: Antifungal activity against Rhizoctonia solani at 500 ug/ml after 72 hrs by agar well diffusion method; settings: read-out: DIZ
[11] = tested on: Fusarium oxysporum; test: Antifungal activity against Fusarium oxysporum at 200 ug/ml after 72 hrs by agar well diffusion method; settings: read-out: DIZ
[12] = tested on: Klebsiella pneumoniae; test: Antibacterial activity against Klebsiella pneumoniae at 500 ug/ml after 24 hrs by agar well diffusion method; settings: read-out: DIZ
[13] = tested on: Aspergillus niger; test: Antifungal activity against Aspergillus niger after 72 hrs by agar well diffusion method
[14] = tested on: Aspergillus flavus; test: Antifungal activity against Aspergillus flavus at 500 ug/ml after 72 hrs by agar well diffusion method; settings: read-out: DIZ
[15] = tested on: Escherichia coli; test: Antibacterial activity against Escherichia coli ATCC 8739 at 200 ug/ml after 24 hrs by agar well diffusion method; settings: ATCC 8739, 24 h, read-out: DIZ
[16] = tested on: Aspergillus niger; test: Antifungal activity against Aspergillus niger at 50 ug/ml after 72 hrs by agar well diffusion method; settings: read-out: DIZ
[17] = tested on: Aspergillus flavus; test: Antifungal activity against Aspergillus flavus at 200 ug/ml after 72 hrs by agar well diffusion method; settings: read-out: DIZ
[18] = tested on: Aspergillus flavus; test: Antifungal activity against Aspergillus flavus at 100 ug/ml after 72 hrs by agar well diffusion method; settings: read-out: DIZ
[19] = tested on: Fusarium oxysporum; test: Antifungal activity against Fusarium oxysporum at 50 ug/ml after 72 hrs by agar well diffusion method; settings: read-out: DIZ
[20] = tested on: Klebsiella pneumoniae; test: Antibacterial activity against Klebsiella pneumoniae after 24 hrs by agar well diffusion method
[21] = tested on: Bacillus subtilis; test: Antibacterial activity against Bacillus subtilis at 50 ug/ml after 24 hrs by agar well diffusion method; settings: read-out: DIZ
[22] = tested on: Klebsiella pneumoniae; test: Antibacterial activity against Klebsiella pneumoniae at 50 ug/ml after 24 hrs by agar well diffusion method; settings: read-out: DIZ
[23] = tested on: Bacillus subtilis; test: Antibacterial activity against Bacillus subtilis at 100 ug/ml after 24 hrs by agar well diffusion method; settings: read-out: DIZ
[24] = tested on: Aspergillus flavus; test: Antifungal activity against Aspergillus flavus at 300 ug/ml after 72 hrs by agar well diffusion method; settings: read-out: DIZ
[25] = tested on: Rhizoctonia solani; test: Antifungal activity against Rhizoctonia solani after 72 hrs by agar well diffusion method
[26] = tested on: Staphylococcus aureus; test: Antibacterial activity against Staphylococcus aureus ATCC 6538 at 500 ug/ml after 24 hrs by agar well diffusion method; settings: ATCC 6538, 24 h, read-out: DIZ
[27] = tested on: Staphylococcus aureus; test: Antibacterial activity against Staphylococcus aureus ATCC 6538 at 200 ug/ml after 24 hrs by agar well diffusion method; settings: ATCC 6538, 24 h, read-out: DIZ
[28] = tested on: Aspergillus niger; test: Antifungal activity against Aspergillus niger at 100 ug/ml after 72 hrs by agar well diffusion method; settings: read-out: DIZ
[29] = tested on: Fusarium oxysporum; test: Antifungal activity against Fusarium oxysporum at 300 ug/ml after 72 hrs by agar well diffusion method; settings: read-out: DIZ
[30] = tested on: Fusarium oxysporum; test: Antifungal activity against Fusarium oxysporum at 500 ug/ml after 72 hrs by agar well diffusion method; settings: read-out: DIZ
[31] = tested on: Rhizoctonia solani; test: Antifungal activity against Rhizoctonia solani at 50 ug/ml after 72 hrs by agar well diffusion method; settings: read-out: DIZ
[32] = tested on: Rhizoctonia solani; test: Antifungal activity against Rhizoctonia solani at 100 ug/ml after 72 hrs by agar well diffusion method; settings: read-out: DIZ
[33] = tested on: Aspergillus flavus; test: Antifungal activity against Aspergillus flavus at 50 ug/ml after 72 hrs by agar well diffusion method; settings: read-out: DIZ
[34] = tested on: Klebsiella pneumoniae; test: Antibacterial activity against Klebsiella pneumoniae at 300 ug/ml after 24 hrs by agar well diffusion method; settings: read-out: DIZ
[35] = tested on: Fusarium oxysporum; test: Antifungal activity against Fusarium oxysporum at 100 ug/ml after 72 hrs by agar well diffusion method; settings: read-out: DIZ
[36] = tested on: Aspergillus niger; test: Antifungal activity against Aspergillus niger at 200 ug/ml after 72 hrs by agar well diffusion method; settings: read-out: DIZ
[37] = tested on: Aspergillus flavus; test: Antifungal activity against Aspergillus flavus after 72 hrs by agar well diffusion method
[38] = tested on: Bacillus subtilis; test: Antibacterial activity against Bacillus subtilis after 24 hrs by agar well diffusion method
[39] = tested on: Rhizoctonia solani; test: Antifungal activity against Rhizoctonia solani at 200 ug/ml after 72 hrs by agar well diffusion method; settings: read-out: DIZ
[40] = tested on: Escherichia coli; test: Antibacterial activity against Escherichia coli ATCC 8739 at 50 ug/ml after 24 hrs by agar well diffusion method; settings: ATCC 8739, 24 h, read-out: DIZ
[41] = tested on: Escherichia coli; test: Antibacterial activity against Escherichia coli ATCC 8739 after 24 hrs by agar well diffusion method; settings: ATCC 8739, 24 h
[42] = tested on: Escherichia coli; test: Antibacterial activity against Escherichia coli ATCC 8739 at 100 ug/ml after 24 hrs by agar well diffusion method; settings: ATCC 8739, 24 h, read-out: DIZ
[43] = tested on: Aspergillus niger; test: Antifungal activity against Aspergillus niger at 300 ug/ml after 72 hrs by agar well diffusion method; settings: read-out: DIZ
[44] = tested on: Rhizoctonia solani; test: Antifungal activity against Rhizoctonia solani at 300 ug/ml after 72 hrs by agar well diffusion method; settings: read-out: DIZ
[45] = tested on: Escherichia coli; test: Antibacterial activity against Escherichia coli ATCC 8739 at 300 ug/ml after 24 hrs by agar well diffusion method; settings: ATCC 8739, 24 h, read-out: DIZ
[46] = tested on: Bacillus subtilis; test: Antibacterial activity against Bacillus subtilis at 500 ug/ml after 24 hrs by agar well diffusion method; settings: read-out: DIZ
[47] = tested on: Klebsiella pneumoniae; test: Antibacterial activity against Klebsiella pneumoniae at 200 ug/ml after 24 hrs by agar well diffusion method; settings: read-out: DIZ
[48] = tested on: Staphylococcus aureus; test: Antibacterial activity against Staphylococcus aureus ATCC 6538 at 100 ug/ml after 24 hrs by agar well diffusion method; settings: ATCC 6538, 24 h, read-out: DIZ

Compound: CC1(C)OC(=O)C(=Cc2c[nH]c3ccc(Br)cc23)C(=O)O1
- zone of inhibition at 200 µg/mL [1]: 13 mm
- zone of inhibition at 500 µg/mL [2]: 32 mm
- zone of inhibition at 300 µg/mL [3]: 19 mm
- MIC [4]: 25 µg/mL (≈ 71.4 µM)
- MIC [5]: 20 µg/mL (≈ 57.1 µM)
- zone of inhibition at 50 µg/mL [6]: 8 mm
- zone of inhibition at 100 µg/mL [7]: 16 mm
- zone of inhibition at 500 µg/mL [8]: 26 mm
- zone of inhibition at 300 µg/mL [9]: 17 mm
- zone of inhibition at 500 µg/mL [10]: 32 mm
- zone of inhibition at 200 µg/mL [11]: 17 mm
- zone of inhibition at 500 µg/mL [12]: 34 mm
- MIC [13]: 30 µg/mL (≈ 85.7 µM)
- zone of inhibition at 500 µg/mL [14]: 24 mm
- zone of inhibition at 200 µg/mL [15]: 16 mm
- zone of inhibition at 50 µg/mL [16]: 7 mm
- zone of inhibition at 200 µg/mL [17]: 13 mm
- zone of inhibition at 100 µg/mL [18]: 10 mm
- zone of inhibition at 50 µg/mL [19]: 10 mm
- MIC [20]: 10 µg/mL (≈ 28.6 µM)
- zone of inhibition at 50 µg/mL [21]: 7 mm
- zone of inhibition at 50 µg/mL [22]: 11 mm
- zone of inhibition at 100 µg/mL [23]: 11.5 mm
- zone of inhibition at 300 µg/mL [24]: 17 mm
- MIC [25]: 25 µg/mL (≈ 71.4 µM)
- zone of inhibition at 500 µg/mL [26]: 27 mm
- zone of inhibition at 200 µg/mL [27]: 15 mm
- zone of inhibition at 100 µg/mL [28]: 11 mm
- zone of inhibition at 300 µg/mL [29]: 21 mm
- zone of inhibition at 500 µg/mL [30]: 31 mm
- zone of inhibition at 50 µg/mL [31]: 10 mm
- zone of inhibition at 100 µg/mL [32]: 15 mm
- zone of inhibition at 50 µg/mL [33]: 5 mm
- zone of inhibition at 300 µg/mL [34]: 25 mm
- zone of inhibition at 100 µg/mL [35]: 14 mm
- zone of inhibition at 200 µg/mL [36]: 15 mm
- MIC [37]: 35 µg/mL (≈ 100 µM)
- MIC [38]: 20 µg/mL (≈ 57.1 µM)
- zone of inhibition at 200 µg/mL [39]: 19 mm
- zone of inhibition at 50 µg/mL [40]: 10.4 mm
- MIC [41]: 10 µg/mL (≈ 28.6 µM)
- zone of inhibition at 100 µg/mL [42]: 15.5 mm
- zone of inhibition at 300 µg/mL [43]: 19 mm
- zone of inhibition at 300 µg/mL [44]: 24 mm
- zone of inhibition at 300 µg/mL [45]: 23 mm
- zone of inhibition at 500 µg/mL [46]: 25 mm
- zone of inhibition at 200 µg/mL [47]: 20 mm
- zone of inhibition at 100 µg/mL [48]: 12 mm
